{
  "source": "patent US10059708B2",
  "about": "“Therapeutic targeting of the interleukin 1 receptor-associated kinase 4 (IRAK4) in leukemias characterized by rearrangements in the mixed lineage leukemia gene (MLL-r)” (Northwestern University, priority 2016, dated 2018)",
  "key": {"REH cells": {"test_system": "REH cells", "assay": "REH cell proliferation (trypan blue, Vi-CELL XR)", "type": "cell-based, human", "details": "500 nM IRAK4 inhibitor", "experimental": "FIG. 4. […] Viable cells were seeded at 0.2 million/mL, and they were monitored by trypan blue exclusion staining and counted using a Vi-CELL XR cell counter. Data are represented as mean±SD (n=3). […] Data are represented as mean±SD (n=3). (C) Venn diagram of deregulated genes in SEM cells by IRAK1/4 and IRAK4 inhibitors. […] (D) Venn diagram of deregulated genes in SEM and REH cells by both inhibitors. Little overlap was observed between REH and SEM cells. […] Each cluster is represented by different colors and a circle node represents each enriched term. (G) UBE2O depletion and IRAK inhibition affect a common subset of genes in SEM cells. […] Heatmaps represent Z score-normalized values. See also FIG. 11.\nStabilization of MLL through IRAK Inhibition and UBE2O Depletion Regulates a Specific Gene Regulatory Network in MLL Leukemia. To measure the consequence of stabilizing MLL in MLL leukemia cells, we determined the effects of IRAK inhibition on cell proliferation of REH (MLL-germline leukemia) and SEM (MLL-AFF1) cells. Both of these cell lines are derived from precursor B cell ALL patient blast cells, and, therefore, they have been studied when comparing non-MLL (REH) and MLL-dependent (SEM) leukemia gene expression (Guenther et al., 2008)."}, "[1]": {"test_system": "MLL-AF6-positive ML2 leukemia cells", "assay": "Dose-dependent growth study, ML2 cells", "type": "cell-based, human", "details": "different doses, 3 days", "experimental": "(§1) FIG. 5. Determinants of the Increased Sensitivity of MLL Leukemia Cells to IRAK Inhibition (A) IRAK4 inhibitor-specific inhibition of MLL leukemia cell proliferation. Multiple MLL leukemia and non-MLL leukemia or lymphoma cell lines were cultured with different doses of IRAK4 inhibitor for 3 days. Data are represented as mean±SD (n=3). (B) Cell growth of MLL-AF9-positive AML MM6 cells is inhibited by IRAK inhibition. Data are represented as mean±SD (n=3). […] The p value was determined with the hypergeometric test. […] (E and F) Depletion of LGALS1 (E) and LMO2 (F) results in reduced growth of MM6 cells. MM6 cells were transduced with shGFP control (GFPi) or two different lentiviral shRNA constructs. After selection with puromycin for 4 days, viable cells were seeded at 0.2 million/mL and cultured for 3 more days before cell viability counting. Data represent the mean±SD (n=3; **p<0.005, one-way ANOVA). See also FIG. 12.\n(§2) Determinants of the Increased Sensitivity of MLL Leukemia Cells to IRAK Inhibition. To further determine the effectiveness of IRAK inhibition for MLL leukemia cell growth, we performed dose-dependent studies with multiple patient-derived leukemia cell lines, including MLL leukemia and non-MLL leukemia or lymphoma cells."}, "MLL-AF9 leukemia": {"test_system": "MLL-AF9 leukemia", "assay": "Murine MLL-AF9 leukemia transplantation model", "type": "in vivo, C57BL/6 mice", "details": "treatment from day 10 after transplantation; IRAK1/4 inhibitor 8 mg/kg, IRAK4 inhibitor 75 mg/kg i.p. every other day; vehicle mice all dead by 31 days", "from_the_text": "After transformation of MLL-AF9, c-Kit+ HSPCs were transplanted into lethally irradiated C57BL/6 mice with 1 3 106 transformed cells and 2 3 105 support cells. Leukemia cells from primary AML mice were isolated and transplanted into sublethally irradiated C57BL/6 mice. Drug treatments were started at day 10 or 19 after transplantation. (B) Kaplan-Meier survival curves of secondary transplanted C57BL/6 mice after vehicle and IRAK1/4 or IRAK4 inhibitor treatment at day 19 (blast phase). Vehicle or IRAK inhibitors were administered every other day by intraperitoneal injection for a total of five treatments. Leukemia was confirmed at the endpoint for each transplant mouse. […] The p values were calculated using the log rank test. […] The p values were calculated using the log rank test. […]\nWe further assessed the effects of the IRAK inhibitors in vivo using the murine MLL-AF9 leukemia transplantation model (FIG. 7A) (Volk et al., 2014). […]\nMurine MLL-AF9 Leukemia Model. […] The mice were monitored for signs of acute leukemia for 2-3 months and euthanized when leukemia was evident (weight loss below 16.75 g, reduced mobility, malaise, palpable spleen, and hunched back). […]\nAnimal Treatment. […] Mice were monitored for leukemia development and leukemia was verified after the mice were sacrificed upon signs of illness (weight loss below 16.75 g, partial paralysis, malaise, palpable spleen, and hunched back)."}, "[2]": {"test_system": "MLL-rearranged AML and ALL leukemia cells", "assay": "Dose-dependent growth study with patient-derived leukemia cell lines", "type": "cell-based, human", "details": "different doses, 3 days", "experimental": "as §1, §2"}},
  "data": [
    {"smiles": "COc1cc2c(cc1OCCCN1CCN(C)CC1)ncc1c3ccc(C#N)cc3[nH]c21", "note": "[IRAK4 inhibitor]", "values": [
      {"measurement": "REH cell proliferation", "setting": "REH cells", "value": "no detectable effect"},
      {"measurement": "sensitivity of ML2 cells (wild-type MLL allele deleted)", "setting": "[1]", "value": "not sensitive"},
      {"measurement": "mice that still did not develop MLL-AF9 leukemia as of day 55", "setting": "MLL-AF9 leukemia", "value": "four of nine"},
      {"measurement": "cell growth of MLL-rearranged versus non-MLL leukemia or lymphoma cells", "setting": "[2]", "value": "preferentially impeded cell growth of MLL-rearranged AML and ALL leukemia cells"}
    ]}
  ]
}
